This note sets out measurements from PubChem BioAssay (NCI).

Where “and” joins values, the source holds several entries; their conditions need not be identical. Equal entries are not always repeated.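 Dose response: 5 concentrations. Exposure: 48 h. Format: 96-well plates. Endpoint: linear interpolation; highest concentration if not reached. The concentration for 50% growth inhibition is given as GI50. TGI is the concentration that stops growth completely.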

Among the test systems are SF-268 CNS; HCC-2998 colon; OVCAR-4 ovarian; HOP-92 NSCLC; EKVX NSCLC; IGROV1 ovarian; NCI/ADR-RES ovarian; SK-MEL-28 melanoma; A498 renal; HS 578T breast; MDA-MB-435; ACHN renal.
What all share (assay): NCI-60 cell line screen, 48 h

Turning to `CC1=NN(c2nc(N)nc(CF)n2)C(C)(C)C1`, the TGI with SF-268 CNS, in the experiment on HCC-2998 colon, in the experiment on OVCAR-4 ovarian, with HOP-92 NSCLC, in the experiment with EKVX NSCLC and with IGROV1 ovarian was above 100 µM throughout. In addition, the TGI in the experiment on NCI/ADR-RES ovarian, in the experiment on SK-MEL-28 melanoma, with A498 renal, in the experiment with HS 578T breast, in the experiment on MDA-MB-435 and in the experiment with ACHN renal was above 100 µM throughout.

For `C=C1C(=O)OC2CC3(C)OC3CC/C(C)=C/C(OC(C)=O)C12` (stereo not drawn), the TGI in the experiment with SF-268 CNS worked out at 34.8 µM; with HCC-2998 colon, 31.6 µM; in the experiment with OVCAR-4 ovarian, 16.1 µM; in the experiment on HOP-92 NSCLC, 4.69 µM; in the experiment with EKVX NSCLC, 32.7 µM; in the experiment on IGROV1 ovarian, 35.3 µM. The TGI came to 30.1 µM with NCI/ADR-RES ovarian; 16.8 µM with SK-MEL-28 melanoma; 29.9 µM in the experiment with A498 renal; 42.9 µM with HS 578T breast; 25.2 µM in the experiment on MDA-MB-435; 23.3 µM in the experiment on ACHN renal.

For the compound `[N-]=[N+]=Nc1c([N+](=O)[O-])c(=O)n2c3c(cccc13)CCC2`, the TGI in the experiment on SF-268 CNS was 21.3 µM; in the experiment on HCC-2998 colon, 34.4 µM; in the experiment on OVCAR-4 ovarian it was 27 µM; in the experiment on HOP-92 NSCLC, 30 µM; in the experiment with EKVX NSCLC, 41.8 µM; in the experiment on IGROV1 ovarian it was 41 µM. The TGI with NCI/ADR-RES ovarian is 45.5 µM; with SK-MEL-28 melanoma, 16.3 µM; in the experiment on A498 renal, 50.4 µM; in the experiment on HS 578T breast it was above 77.3 µM; in the experiment with MDA-MB-435 it was 31.2 µM; in the experiment with ACHN renal it was 31.8 µM.

In the case of `CC(=O)c1c2n(n(-c3ccccc3)c1=O)C(=O)c1nccnc1-2`, the TGI in the experiment on SF-268 CNS, in the experiment on HCC-2998 colon, with OVCAR-4 ovarian, in the experiment on HOP-92 NSCLC, in the experiment on EKVX NSCLC and in the experiment with IGROV1 ovarian was above 100 µM each time. For the same compound, the TGI in the experiment with NCI/ADR-RES ovarian, with SK-MEL-28 melanoma, in the experiment on A498 renal, in the experiment on HS 578T breast, in the experiment with MDA-MB-435 and in the experiment on ACHN renal was above 100 µM each time.

Take `CC(C)(C)CC(C)(C)c1ccc(O)c(C[N+](C)(C)[O-])c1`: the TGI in the experiment on SF-268 CNS, with HCC-2998 colon, with OVCAR-4 ovarian, in the experiment with HOP-92 NSCLC, in the experiment with EKVX NSCLC and in the experiment on IGROV1 ovarian was above 100 µM each time. Moreover, the TGI with NCI/ADR-RES ovarian, with SK-MEL-28 melanoma, in the experiment on A498 renal, in the experiment on HS 578T breast, with MDA-MB-435 and in the experiment on ACHN renal was above 100 µM each time.

As to `COc1ccc(Nc2nc(N)c(C(=O)c3cccs3)s2)cc1`, the TGI in the experiment on SF-268 CNS is above 100 µM; with HCC-2998 colon it was 8.85 µM; in the experiment with OVCAR-4 ovarian, 48.1 µM; in the experiment on HOP-92 NSCLC it was 89.3 µM; with EKVX NSCLC, above 75 µM; in the experiment on IGROV1 ovarian, 41.5 µM. Also, the TGI in the experiment with NCI/ADR-RES ovarian was above 100 µM; with SK-MEL-28 melanoma, above 95.7 µM; with A498 renal, 40.5 µM; in the experiment with HS 578T breast, above 61.9 µM; in the experiment on MDA-MB-435, 22.8 µM; with ACHN renal, above 100 µM.

As for `CC(=O)/C(=C/N1CCNC1=S)C(=O)Nc1ccccc1C`, the TGI with SF-268 CNS, with HCC-2998 colon, with OVCAR-4 ovarian, with HOP-92 NSCLC, in the experiment on EKVX NSCLC and with IGROV1 ovarian was above 100 µM each time. Moreover, the TGI in the experiment on NCI/ADR-RES ovarian, in the experiment with SK-MEL-28 melanoma, in the experiment with A498 renal, in the experiment with HS 578T breast, in the experiment with MDA-MB-435 and in the experiment with ACHN renal was above 100 µM each time.

Consider `COc1ccc(C(=O)/C=C/c2cc(O)c(O)cc2F)c(OC)c1`, for which the TGI in the experiment on SF-268 CNS was 32.3 µM; in the experiment on HCC-2998 colon, 7.42 µM; in the experiment on OVCAR-4 ovarian, above 100 µM; in the experiment on HOP-92 NSCLC, above 100 µM; in the experiment on EKVX NSCLC, 49 µM; in the experiment on IGROV1 ovarian it was above 88.2 µM. Also, the TGI in the experiment on NCI/ADR-RES ovarian was above 68.7 µM; in the experiment with SK-MEL-28 melanoma, 31.1 µM; in the experiment on A498 renal, 26.8 µM; with HS 578T breast, above 65.3 µM; in the experiment with MDA-MB-435, above 100 µM; in the experiment with ACHN renal it was above 63.3 µM.

Turning to `C=CCC(C(=O)Nc1cccc2[nH]cnc12)C(=O)OCC` (stereo not drawn), the TGI with SF-268 CNS, in the experiment with HCC-2998 colon, with OVCAR-4 ovarian, in the experiment with HOP-92 NSCLC, with EKVX NSCLC and in the experiment on IGROV1 ovarian was above 100 µM throughout. Besides, the TGI in the experiment on NCI/ADR-RES ovarian, in the experiment with SK-MEL-28 melanoma, in the experiment on A498 renal, with HS 578T breast, in the experiment with MDA-MB-435 and with ACHN renal was above 100 µM in each case.

For the compound `O=c1ccc2ccc(O)cc2o1`, the TGI with SF-268 CNS, with HCC-2998 colon, with OVCAR-4 ovarian, in the experiment with HOP-92 NSCLC, in the experiment with EKVX NSCLC and with IGROV1 ovarian was above 100 µM each time. For the same compound, the TGI in the experiment on NCI/ADR-RES ovarian, with SK-MEL-28 melanoma, with A498 renal, with HS 578T breast, in the experiment with MDA-MB-435 and with ACHN renal was above 100 µM throughout.

For `CN(Cc1cc(Cl)c(Cl)cc1NC(=O)CN)[C@H]1CCCC[C@@H]1N1CCCC1`, the TGI is above 100 µM in the experiment with SF-268 CNS; 31.2 µM with HCC-2998 colon; above 100 µM in the experiment on OVCAR-4 ovarian; above 100 µM in the experiment on HOP-92 NSCLC; above 100 µM in the experiment on EKVX NSCLC; above 100 µM with IGROV1 ovarian. The TGI is above 100 µM in the experiment on NCI/ADR-RES ovarian; 41.5 µM with SK-MEL-28 melanoma; 41.5 µM in the experiment with A498 renal; 58.5 µM with HS 578T breast; 32.9 µM in the experiment on MDA-MB-435; above 100 µM in the experiment on ACHN renal.

Consider `CN1CCN(C2=CC(=O)c3c(O)ccc(O)c3C2=O)CC1`, for which the TGI in the experiment on SF-268 CNS is 2.93 µM; in the experiment with HCC-2998 colon, 3.23 µM; in the experiment with OVCAR-4 ovarian, 3.46 µM; with HOP-92 NSCLC, 3.29 µM; in the experiment on EKVX NSCLC, 3.26 µM; in the experiment on IGROV1 ovarian, 3.06 µM. For the same compound, the TGI in the experiment on NCI/ADR-RES ovarian was above 10 µM; in the experiment on SK-MEL-28 melanoma it was 3 µM; in the experiment with A498 renal it was 2.87 µM; in the experiment with HS 578T breast, 4.1 µM; in the experiment on MDA-MB-435, 0.332 µM; in the experiment with ACHN renal, 2.88 µM.

In the case of `Oc1cc(Br)cc2cc(Cl)cnc12`, the TGI in the experiment with SF-268 CNS is above 39.9 µM; with HCC-2998 colon, 46.3 µM; in the experiment with OVCAR-4 ovarian, 12.8 µM; with HOP-92 NSCLC, above 100 µM; in the experiment with EKVX NSCLC, 45.2 µM; in the experiment with IGROV1 ovarian it was 27.1 µM. For the same compound, the TGI is 10 µM with NCI/ADR-RES ovarian; above 100 µM in the experiment with SK-MEL-28 melanoma; 22.9 µM in the experiment with A498 renal; 12.1 µM in the experiment on HS 578T breast; above 67.7 µM with MDA-MB-435; above 68 µM in the experiment with ACHN renal.

On to `Cc1c(C(=O)O)n2cnnc2c2ccccc12`, for which the TGI in the experiment with SF-268 CNS, with HCC-2998 colon, in the experiment on OVCAR-4 ovarian, in the experiment on HOP-92 NSCLC, in the experiment on EKVX NSCLC and with IGROV1 ovarian was above 100 µM in each case. Also, the TGI with NCI/ADR-RES ovarian, in the experiment on SK-MEL-28 melanoma, in the experiment on A498 renal, with HS 578T breast, with MDA-MB-435 and in the experiment with ACHN renal was above 100 µM in each case.

As for `O=[N+]([O-])C(Cl)=C/C(=C(\Cl)SCc1ccccc1)[N+](=O)[O-]`, the TGI in the experiment with SF-268 CNS is above 100 µM; in the experiment on HCC-2998 colon, 77.6 µM; with OVCAR-4 ovarian, 41.2 µM; in the experiment on HOP-92 NSCLC, 36.1 µM; in the experiment on EKVX NSCLC, 35.2 µM; in the experiment on IGROV1 ovarian, 91 µM. Also, the TGI with NCI/ADR-RES ovarian was above 100 µM; with SK-MEL-28 melanoma, 59.7 µM; in the experiment with A498 renal, 81.4 µM; in the experiment with HS 578T breast, above 100 µM; in the experiment with MDA-MB-435, 36.3 µM; with ACHN renal, 32.2 µM.

Consider `C=C(C(=O)O[C@H]1C(=O)C2=C(C)CCC3C(=C)C(=O)O[C@@H]3C2[C@]1(C)O)C1CC[C@]2(C)CCCC(=C)[C@H]2C1` (stereo partly drawn), for which the GI50 with SF-268 CNS was 7.47 µM; in the experiment with OVCAR-4 ovarian, 6.69 µM; with HOP-92 NSCLC, 7.27 µM; in the experiment with IGROV1 ovarian, 7.28 µM; in the experiment with NCI/ADR-RES ovarian, 8.52 µM; in the experiment on A498 renal it was 0.0282 µM. In the experiment on ACHN renal, the GI50 is 5.19 µM. In addition, the TGI is 14.8 µM and 11 µM with SF-268 CNS; 9.68 µM in the experiment on HCC-2998 colon; 13.4 µM and 11.3 µM with OVCAR-4 ovarian; 14.2 µM and 11.3 µM in the experiment on HOP-92 NSCLC; 17.8 µM and 22.7 µM in the experiment with EKVX NSCLC; 13.8 µM and 11.3 µM in the experiment on IGROV1 ovarian. For the same compound, the TGI in the experiment on NCI/ADR-RES ovarian is 33.6 µM and > 23.8 µM; in the experiment with SK-MEL-28 melanoma, 12.5 µM; in the experiment on A498 renal, 6.88 µM and 26.1 µM; in the experiment with HS 578T breast, 15.8 µM; in the experiment on MDA-MB-435, 10.1 µM and 8.5 µM; in the experiment with ACHN renal, 11 µM and 8.85 µM.

Take `NC(N)=NCCCC(NC(=O)OCCCCn1ccc(N)nc1=O)C(=O)O` (stereo not drawn): the TGI in the experiment on SF-268 CNS, with HCC-2998 colon, in the experiment with OVCAR-4 ovarian, in the experiment on HOP-92 NSCLC, in the experiment on EKVX NSCLC and in the experiment on IGROV1 ovarian was above 100 µM each time. The TGI with NCI/ADR-RES ovarian, with SK-MEL-28 melanoma, with A498 renal, with HS 578T breast, in the experiment on MDA-MB-435 and in the experiment on ACHN renal was above 100 µM each time.

With `c1ccc(CN2CCN3CCN(CC2)CCN(Cc2ccccc2)CC3)cc1`, the TGI is 24.7 µM in the experiment with SF-268 CNS; 23.3 µM in the experiment with HCC-2998 colon; 20.3 µM in the experiment on OVCAR-4 ovarian; 21.9 µM with HOP-92 NSCLC; 32.6 µM with EKVX NSCLC; 22.1 µM in the experiment with IGROV1 ovarian. Besides, the TGI in the experiment on NCI/ADR-RES ovarian is above 100 µM; with SK-MEL-28 melanoma, 18.4 µM; in the experiment on A498 renal it was 27.5 µM; in the experiment on HS 578T breast, 35.5 µM; in the experiment with MDA-MB-435 it was 12.6 µM; in the experiment on ACHN renal, 65.6 µM.
